The values below come from ChEMBL document CHEMBL1201862, “PubChem BioAssay data set” (2004).

Among the test systems are A498; UACC-257; 786-0; MDA-MB-435; SK-MEL-5; RPMI-8226; HL-60; SNB-78; SK-MEL-28; ACHN; SR; COLO 205; SF-539; SF-268; KM12; OVCAR-5; HT-29; MDA-N; MDA-MB-231; EKVX.
Holding throughout (experiment): NCI anticancer screen, dose series, 48 h

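Step 1: Grow cells in 96-well plates. Step 2: Expose to compound for 48 hours at 5 concentrations. Step 3: Interpolate endpoints linearly; if unreached, use highest concentration. GI50 marks 50% less growth.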 Active and inactive are the calls of the source. No stated cut-off is given here; in the data, active = GI50 up to about 1.1 µM and inactive = higher.

With `COc1cc2c(cc1OC)[C@H]1CN3CCC[C@H]3C=C1c1ccc(OC)c(O)c1-2`, the GI50 in the assay with A498 was < 0.0001 µM (active); in the assay with UACC-257 it was 0.000681 µM (active); with 786-0, 0.000728 µM (active); in the assay with MDA-MB-435, 0.00264 µM (active); with SK-MEL-5 it was 0.000539 µM (active); with RPMI-8226, 0.000577 µM (active). Moreover, the GI50 in the assay with HL-60 was 0.000487 µM (active); in the assay on SNB-78, < 0.0001 µM (active); in the assay on SK-MEL-28 it was 0.0006 µM (active); in the assay on ACHN, 0.000566 µM (active); with SR, 0.00059 µM (active); in the assay on COLO 205, 0.0006 µM (active). Besides, the GI50 in the assay with SF-539 was 0.000711 µM (active); in the assay on SF-268, 0.000819 µM (active); in the assay on KM12 it was 0.000519 µM (active); with OVCAR-5, 0.000653 µM (active); with HT-29, 0.000656 µM (active); in the assay with MDA-N it was 0.00346 µM (active). Further, the GI50 in the assay with MDA-MB-231 is 0.00378 µM (active); in the assay on EKVX, 0.000883 µM (active).
Regarding `Cc1cc2c(c3c1c1ccccc1n3C)C(=O)C=CC2=O`, the GI50 in the assay on A498 was 47.5 µM (inactive); with UACC-257, 18.2 µM (inactive); with 786-0, 5.6 µM (inactive); in the assay on MDA-MB-435, 28.8 µM (inactive); with SK-MEL-5 it was 32.3 µM (inactive); in the assay with RPMI-8226 it was 2.82 µM (inactive). Also, the GI50 in the assay with HL-60 was 1.45 µM (inactive); in the assay on SNB-78, > 54.1 µM (inactive); with SK-MEL-28, 19.9 µM (inactive); with ACHN, 21.3 µM (inactive); in the assay with SR it was 0.885 µM (active); in the assay on COLO 205, 29.1 µM (inactive). The GI50 in the assay with SF-539 was 23.8 µM (inactive); in the assay with SF-268, 23.9 µM (inactive); in the assay with KM12, 25.2 µM (inactive); with OVCAR-5, 43.7 µM (inactive); in the assay with HT-29, 31 µM (inactive); with MDA-N it was 24.5 µM (inactive). In addition, the GI50 is 25.7 µM (inactive) in the assay on MDA-MB-231 and > 75.5 µM (inactive) in the assay with EKVX.
